Each structure is given as a SMILES string. Where a SMILES comes first, the peptide text is derived from it.

For data set [1], the system named is human erythrocytes. The class given is cell-based. As to the method: In hemolysis assays, the ability of peptides at 128 μg/ml concentration to lyse human erythrocytes to release hemoglobin was measured. The peptides described here preferably have low hemolytic activity (0.2 to 3.8% hemolysis) in mammal body. […] These peptides are useful as antimicrobial drugs as they show little or no side effects at concentrations needed to kill bacteria.
Minimum inhibition concentrations (MICs) were tested by microbroth dilution method and Chain 104, 105 and 109 inhibited the growth of Escherichia coli (ATCC 25922), Staphylococcus aureus (ATCC 25923), Klebsiella pneumoniae (ATCC 10031) and Pseudomonas aeruginosa (ATCC 27853) between 1-8 μg/ml respectively (Tables 3a, 3b and 3c). The membranolytic activities of the peptides were tested by measuring the release of hemoglobin from erythrocytes of fresh blood donated by voluntiers. Hemoglobin levels were determined spectrometrically by taking OD at 540 nm by following the protocol of Schmidtchen et al., 2011.

The conditions of data set [2]: +4, 25, 37 and 45° C., 14 days, PBS pH 7.4, RDA with 20 μg.
Procedure: (§3) Thermal stability was evaluated by diluting peptides to the concentration of 2 mg/ml in PBS buffer (pH 7.4) and incubating at different temperatures, such as +4° C., 25° C. (RT), 37° C. and 45° C., peptides stored at −20° C. were used as control. […] Peptides were also tested by diluting them at different pH values starting from pH 4 to 9. The effect of NaCl on the antimicrobial activity was tested by adding different concentrations (50, 100 and 200 mM) of NaCl to MH medium and the minimum inhibitory concentrations were tested against 4 ATCC bacterial strains.
For data set [3] the following is noted: pH 4-9, RDA.
Procedure: as §3
For data set [4], the system named is gram positive and negative bacteria. Nature of the data set: MIC by micro broth dilution, summary over the strains tested. The class given is cell-based. As for the experimental part: (§1) Minimum inhibition concentrations (MICs) were determined against Escherichia coli (ATCC 25922), Staphylococcus aureus (ATCC 25923), Klebsiella pneumoniae (ATCC 10031) and Pseudomonas aeruginosa (ATCC 27853). Also clinical strains of E. coli, K. pneumoniae, E. cloacae, P. aeruginosa, Serratia marcescens, Proteus mirabilis, S. pneumoniae, Acinetobacter baumannii, A. johnsonii and S. aureus were used for MICs assays. Additionally, clinical strains of yeast including Candida albicans, C. glabrata, C. parapsilosis and C. quillermondiae were used. The susceptibility of these microorganisms to Chain peptides were determined using micro broth dilution assay. Colonies of the respective microorganism from Muller Hinton (MH) agar plates incubated overnight were suspended in MH broth media and final concentration of microorganism was adjusted to 5.0×10^5 cfu/ml. An aliquot of 10 μl of each Chain peptide, or gentamicin, tetracycline as reference antibiotics were added in differing concentrations along with 90 μl of bacterial suspension to 96 well polypropylene plates and incubated at 37° C. for 20 to 24 hours. Concentrations of Chain peptides and reference antibiotics ranged from 0.125 to 128 μg/ml and the MICs were recorded as the lowest concentration with no visual growth of bacteria. Similarly, antifungal MICs were tested in Potato dextrose broth.

Data set [5] relates to S. aureus RN4220. The class given is cell-based, Staphylococcus aureus. Particulars: antibiotic sensitive strain S. aureus RN4220. As for the experimental part: as §1
(§2) Peptides Chain 104, Chain 105, Chain 201, Chain 308, Chain 310 were tested against antibiotic-sensitive strains of S. aureus RN4220 and methicillin resistant strains of S. aureus COL (MRSA). Chain peptides comprising of either L- or D-form amino acids were tested against these bacteria, and the D-form peptides were found have better activity compared to L-form (Table 6). Synergistic activity of chain peptides along with Ertapenem (4 μg/ml) was tested to know whether it will influence the activity against MRSA strains. […] Chain 310 has the best antibacterial activity against the MRSA strains with a MIC of 0.06 & 0.03 μg/ml along with Ertapenem (4 μg/ml) for both forms of L and D-peptides (Table 6).

The test system of data set [6] is S. aureus COL (MRSA). Nature of the data set: Synergistic activity with Ertapenem (4 μg/ml) against MRSA, MIC. Particulars: S. aureus COL, together with 4 μg/ml Ertapenem (synergistic activity). The class given is cell-based, Staphylococcus aureus. As to the method: as §1, §2

As to `CC[C@H](C)[C@H](NC(=O)[C@H](CCSC)NC(=O)[C@H](C)NC(=O)[C@H](CCCNC(=N)N)NC(=O)[C@H](Cc1c[nH]c2ccccc12)NC(=O)[C@H](CCCCN)NC(=O)[C@@H](N)CCCNC(=N)N)C(=O)N[C@@H](CCCNC(=N)N)C(=O)N[C@@H](CC(C)C)C(=O)N[C@@H](Cc1c[nH]cn1)C(=O)N[C@@H](C)C(=O)N[C@@H](CCCCN)C(=O)N[C@@H](CCCNC(=N)N)C(=O)N[C@@H](CC(C)C)C(=O)N[C@@H](CCCNC(=N)N)C(=O)N[C@@H](CCCCN)C(=O)O` [Chain104] (H-RKWRAMIRLHAKRLRK-OH), the “side effects to humans as tested by hemolysis assay” value (from here on “side effects to humans as tested”) in data set [1] is reported as “little side effects”. Moreover, in data set [2], the “thermostability (antibacterial activity kept after incubation)” value (shortened to “thermostability”) was “not hindered by pH or temperature even upto 45 °C for over 14 days”. Besides, the “pH stability (zone of inhibition)” value in data set [3] is reported as “not hindered by pH”.

Turning to `CC[C@H](C)[C@H](NC(=O)[C@H](CCSC)NC(=O)[C@H](C)NC(=O)[C@H](CCCNC(=N)N)NC(=O)[C@H](Cc1c[nH]c2ccccc12)NC(=O)[C@H](CCCCN)NC(=O)[C@@H](N)CCCNC(=N)N)C(=O)N[C@@H](CCCNC(=N)N)C(=O)N[C@@H](CC(C)C)C(=O)N[C@@H](Cc1c[nH]cn1)C(=O)N[C@@H](C)C(=O)N[C@@H](CCCCN)C(=O)N[C@@H](Cc1c[nH]c2ccccc12)C(=O)N[C@@H](CC(C)C)C(=O)N[C@@H](CCCNC(=N)N)C(=O)N[C@@H](CCCCN)C(=O)O` [Chain105] (H-RKWRAMIRLHAKWLRK-OH), the “side effects to humans as tested” value in data set [1] is “little side effects”. The “thermostability” value in data set [2] was “not hindered by pH or temperature even upto 45 °C for over 14 days”. For the same compound, the “pH stability (zone of inhibition)” value in data set [3] is on record as “not hindered by pH”.

`CC(C)C[C@H](NC(=O)[C@H](CCCCN)NC(=O)[C@H](Cc1c[nH]c2ccccc12)NC(=O)[C@H](CCCCN)NC(=O)[C@H](C)NC(=O)[C@H](Cc1c[nH]cn1)NC(=O)[C@H](CC(C)C)NC(=O)[C@H](CCCNC(=N)N)NC(=O)[C@H](Cc1c[nH]c2ccccc12)NC(=O)[C@@H](N)Cc1c[nH]c2ccccc12)C(=O)N[C@@H](Cc1c[nH]c2ccccc12)C(=O)O` [Chain109] (H-WWRLHAKWKLW-OH): the “side effects to humans as tested” value in data set [1] is “little side effects”.

Regarding `CC[C@H](C)[C@H](NC(=O)[C@H](Cc1c[nH]c2ccccc12)NC(=O)[C@@H](N)CCCCN)C(=O)N[C@H](C(=O)N[C@@H](Cc1c[nH]c2ccccc12)C(=O)N[C@@H](CCCNC(=N)N)C(=O)N[C@@H](Cc1c[nH]c2ccccc12)C(=O)N[C@@H](CCCNC(=N)N)C(=O)N[C@@H](Cc1ccccc1)C(=O)N[C@@H](CCCCN)C(=O)N[C@@H](CCCNC(=N)N)C(=O)O)C(C)C` [Chain201] (H-KWIVWRWRFKR-OH), the “side effects to humans as tested” value in data set [1] was “little side effects”. In addition, the “thermostability” value in data set [2] is “not hindered by pH or temperature even upto 45 °C for over 14 days”. Further, the “pH stability (zone of inhibition)” value in data set [3] is given as “not hindered by pH”.

In the case of `CC[C@H](C)[C@H](NC(=O)[C@H](CC(C)C)NC(=O)[C@H](CCCNC(=N)N)NC(=O)[C@@H](N)CCCNC(=N)N)C(=O)N[C@@H](Cc1c[nH]c2ccccc12)C(=O)N[C@@H](CCCNC(=N)N)C(=O)N[C@@H](CCCNC(=N)N)C(=O)N[C@@H](Cc1ccccc1)C(=O)N[C@@H](CCCCN)C(=O)N[C@@H](Cc1c[nH]c2ccccc12)C(=O)N[C@@H](CC(C)C)C(=O)N[C@@H](CCCNC(=N)N)C(=O)O` [Chain204] (H-RRLIWRRFKWLR-OH), the “side effects to humans as tested” value in data set [1] is “little side effects”. The “thermostability” value in data set [2] was “not hindered by pH or temperature even upto 45 °C for over 14 days”. Besides, the “pH stability (zone of inhibition)” value in data set [3] is “not hindered by pH”.

`CC[C@H](C)[C@H](N)C(=O)N[C@@H](Cc1c[nH]c2ccccc12)C(=O)N[C@@H](CCCCN)C(=O)N[C@@H](CCCNC(=N)N)C(=O)N[C@@H](Cc1ccccc1)C(=O)N[C@@H](CCCNC(=N)N)C(=O)N[C@@H](CC(C)C)C(=O)N[C@@H](Cc1ccccc1)C(=O)N[C@@H](CCCCN)C(=O)N[C@@H](CCCCN)C(=O)N[C@@H](Cc1c[nH]c2ccccc12)C(=O)O` [Chain304] (H-IWKRFRLFKKW-OH; N-terminus and C-terminus assumed): the “activity against the four ATCC strains” value in data set [4] is “very active”.

Turning to `CC(C)C[C@H](NC(=O)[C@H](Cc1c[nH]c2ccccc12)NC(=O)[C@H](Cc1ccccc1)NC(=O)[C@H](Cc1c[nH]c2ccccc12)NC(=O)[C@H](CCCCN)NC(=O)[C@H](CCCNC(=N)N)NC(=O)[C@@H](N)Cc1c[nH]c2ccccc12)C(=O)N[C@@H](Cc1ccccc1)C(=O)N[C@@H](CCCCN)C(=O)N[C@@H](CCCCN)C(=O)N[C@@H](CCCNC(=N)N)C(=O)O` [Chain309] (H-WRKWFWLFKKR-OH; N-terminus and C-terminus assumed), the “activity against the four ATCC strains” value in data set [4] is recorded as “very active”.

Turning to `CC(C)C[C@H](NC(=O)[C@H](Cc1c[nH]c2ccccc12)NC(=O)[C@H](Cc1ccccc1)NC(=O)[C@H](Cc1c[nH]c2ccccc12)NC(=O)[C@H](CCCCN)NC(=O)[C@H](CC(C)C)NC(=O)[C@@H](N)CCCCN)C(=O)N[C@@H](Cc1ccccc1)C(=O)N[C@@H](CCCCN)C(=O)N[C@@H](CCCCN)C(=O)N[C@@H](CCCNC(=N)N)C(=O)O` [Chain311] (H-KLKWFWLFKKR-OH; N-terminus and C-terminus assumed), the “activity against the four ATCC strains” value in data set [4] is given as “very active”.

Turning to `CC(C)C[C@H](NC(=O)[C@H](CC(C)C)NC(=O)[C@H](Cc1ccccc1)NC(=O)[C@H](Cc1c[nH]c2ccccc12)NC(=O)[C@H](CCCCN)NC(=O)[C@H](CC(C)C)NC(=O)[C@@H](N)CCCNC(=N)N)C(=O)N[C@@H](Cc1ccccc1)C(=O)N[C@@H](CCCNC(=N)N)C(=O)N[C@@H](CCCCN)C(=O)N[C@@H](CCCNC(=N)N)C(=O)O` [Compound 308] (H-RLKWFLLFRKR-OH), the “Minimum inhibitory concentration (MIC), S. aureus RN4220” value in data set [5] is more than 64 µg/mL. Further, the “Minimum inhibitory concentration (MIC), S. aureus COL + 4 μg/ml Ertapenem” value in data set [6] is 0.5 µg/mL.

For the compound `CC(C)C[C@H](NC(=O)[C@H](CCCCN)NC(=O)[C@H](CCCCN)NC(=O)[C@H](Cc1ccccc1)NC(=O)[C@H](CC(C)C)NC(=O)[C@H](Cc1c[nH]c2ccccc12)NC(=O)[C@H](CCCNC(=N)N)NC(=O)[C@H](Cc1c[nH]c2ccccc12)NC(=O)[C@H](CCCCN)NC(=O)[C@H](CCCNC(=N)N)NC(=O)[C@@H](N)CCCCN)C(=O)O` [Compound 310] (H-KRKWRWLFKKL-OH), the “Minimum inhibitory concentration (MIC), S. aureus RN4220” value in data set [5] was more than 64 µg/mL. For the same compound, the “Minimum inhibitory concentration (MIC), S. aureus COL + 4 μg/ml Ertapenem” value in data set [6] came to 0.06 µg/mL.

Source of the values: patent US11096985B2, “Antimicrobial peptides, their variants and uses” (priority 2015, dated 2021).
